From ChEMBL document CHEMBL1201862, “PubChem BioAssay data set” (2004)
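A five-concentration, 48-hour dose response in 96-well plates underlies each endpoint, interpolated linearly between surrounding concentrations. At the GI50, growth is halved.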 Calls of active or inactive are those of the source. No stated cut-off is given here; in the data, active = GI50 up to about 1.1 µM and inactive = higher.

Assays:
Experiment in all cases: DTP human tumour cell line panel, 48 h
786-0 = system: 786-0
A498 = system: A498
A549 = system: A549
DMS-114 = system: DMS-114
KM12 = system: KM12
NCI-H522 = system: NCI-H522
SF-539 = system: SF-539
SK-OV-3 = system: SK-OV-3
SNB-19 = system: SNB-19
SW-620 = system: SW-620
U-251 = system: U-251
UACC-257 = system: UACC-257
UO-31 = system: UO-31
CAKI-1 = system: CAKI-1
HCT-15 = system: HCT-15
SF-295 = system: SF-295
SK-MEL-5 = system: SK-MEL-5
Hs-578T = system: Hs-578T
MDA-MB-231 = system: MDA-MB-231
T47D = system: T47D

With `COC1=CC(=O)C2(C=C1OC)OC[C@H]1Oc3c(ccc4c3C=CC(C)(C)O4)C(=O)[C@H]12` (stereo partly drawn) the GI50 (786-0) was 68.1 µM (inactive), the GI50 (A498) was 63.7 µM (inactive) and the GI50 (A549) was 42.5 µM (inactive). For the same compound, the GI50 (DMS-114) was 25.2 µM (inactive), the GI50 (KM12) was 40.3 µM (inactive) and the GI50 (NCI-H522) was 16.7 µM (inactive). For the same compound, the GI50 (SF-539) was 34.5 µM (inactive), the GI50 (SK-OV-3) was 70.1 µM (inactive) and the GI50 (SNB-19) was 47 µM (inactive). For the same compound, the GI50 (SW-620) was 35 µM (inactive), the GI50 (U-251) was 56.2 µM (inactive) and the GI50 (UACC-257) was 37.8 µM (inactive). For the same compound, the GI50 (UO-31) was 60.5 µM (inactive).
With `COc1ccc(C(=C(C#N)C#N)c2ccc(OC)cc2)cc1` the GI50 (786-0) was > 100 µM (inactive), the GI50 (A498) was > 100 µM (inactive) and the GI50 (A549) was > 100 µM (inactive). For the same compound, the GI50 (CAKI-1) was > 100 µM (inactive), the GI50 (DMS-114) was 77.1 µM (inactive) and the GI50 (HCT-15) was > 100 µM. For the same compound, the GI50 (KM12) was > 100 µM (inactive), the GI50 (NCI-H522) was 30 µM (inactive) and the GI50 (SF-295) was > 100 µM (inactive). The GI50 (SF-539) was > 100 µM (inactive), the GI50 (SNB-19) was > 100 µM (inactive) and the GI50 (SW-620) was > 100 µM (inactive). For the same compound, the GI50 (U-251) was > 100 µM (inactive), the GI50 (UACC-257) was > 100 µM (inactive) and the GI50 (UO-31) was > 100 µM (inactive).
For `NC(=O)/N=C1/CCC2C3CCCC2C13`, the GI50 (786-0) was > 100 µM (inactive), the GI50 (A549) was > 100 µM (inactive) and the GI50 (CAKI-1) was > 100 µM (inactive). For the same compound, the GI50 (DMS-114) was > 100 µM (inactive), the GI50 (KM12) was > 100 µM (inactive) and the GI50 (NCI-H522) was > 100 µM (inactive). The GI50 (SF-295) was > 100 µM (inactive), the GI50 (SF-539) was > 100 µM (inactive) and the GI50 (SK-MEL-5) was > 100 µM (inactive). The GI50 (SK-OV-3) was > 100 µM (inactive), the GI50 (SNB-19) was > 100 µM (inactive) and the GI50 (SW-620) was > 100 µM (inactive). For the same compound, the GI50 (U-251) was > 100 µM (inactive), the GI50 (UACC-257) was > 100 µM (inactive) and the GI50 (UO-31) was > 100 µM (inactive).
`CC1=CCC23C(C1)OC(Br)(C=CC2(C)O)C3(C)C` (stereo not drawn) was tested, and the GI50 (786-0) was > 100 µM (inactive), the GI50 (A498) was > 100 µM (inactive) and the GI50 (A549) was > 100 µM (inactive). For the same compound, the GI50 (CAKI-1) was > 100 µM (inactive), the GI50 (DMS-114) was > 100 µM (inactive) and the GI50 (KM12) was > 100 µM (inactive). The GI50 (SF-295) was > 100 µM (inactive), the GI50 (SF-539) was > 100 µM (inactive) and the GI50 (SK-MEL-5) was > 100 µM (inactive). For the same compound, the GI50 (SW-620) was > 100 µM (inactive) and the GI50 (UACC-257) was > 100 µM (inactive).
With `O=C1[C@@H]2C(c3ccccc3Br)=NO[C@@H]2C(=O)N1c1ccc(Cc2ccc(N3C(=O)[C@H]4C(c5ccccc5Br)=NO[C@H]4C3=O)cc2)cc1` the GI50 (786-0) was > 100 µM (inactive), the GI50 (A498) was > 100 µM (inactive) and the GI50 (A549) was > 100 µM (inactive). The GI50 (CAKI-1) was > 100 µM (inactive), the GI50 (DMS-114) was > 100 µM (inactive) and the GI50 (HCT-15) was > 100 µM. The GI50 (KM12) was > 100 µM (inactive), the GI50 (SF-295) was > 100 µM (inactive) and the GI50 (SF-539) was > 100 µM (inactive). For the same compound, the GI50 (SK-MEL-5) was > 100 µM (inactive), the GI50 (SK-OV-3) was > 100 µM (inactive) and the GI50 (SW-620) was > 100 µM (inactive). For the same compound, the GI50 (U-251) was > 100 µM (inactive), the GI50 (UACC-257) was > 100 µM (inactive) and the GI50 (UO-31) was 54.8 µM (inactive).
`COc1ccccc1N1C(=O)/C(=C\c2cc(OC)c(OC)c(OC)c2)SC1c1ccccc1` (stereo not drawn) was tested, and the GI50 (786-0) was 97.5 µM (inactive), the GI50 (A498) was > 100 µM (inactive) and the GI50 (A549) was 57.4 µM (inactive). For the same compound, the GI50 (CAKI-1) was > 100 µM (inactive), the GI50 (HCT-15) was 44.7 µM and the GI50 (Hs-578T) was 24 µM (inactive). The GI50 (KM12) was 21.1 µM (inactive), the GI50 (MDA-MB-231) was 44.8 µM (inactive) and the GI50 (NCI-H522) was 13.7 µM (inactive). The GI50 (SF-295) was 23.1 µM (inactive), the GI50 (SF-539) was 99.3 µM (inactive) and the GI50 (SK-MEL-5) was 14.2 µM (inactive). The GI50 (SK-OV-3) was 21.4 µM (inactive), the GI50 (SNB-19) was 27 µM (inactive) and the GI50 (SW-620) was 53.1 µM (inactive). The GI50 (T47D) was 36.6 µM (inactive), the GI50 (U-251) was 24.4 µM (inactive) and the GI50 (UACC-257) was 36.1 µM (inactive). The GI50 (UO-31) was 11.5 µM (inactive).
For `CC[C@H]1CC(=O)c2c(cc3c(c2O)C(=O)c2ccccc2C3=O)[C@@]1(C#N)C(=O)OC(C)(C)C`, the GI50 (786-0) was 4.15 µM (inactive), the GI50 (A549) was 3.27 µM (inactive) and the GI50 (DMS-114) was 3.21 µM (inactive). For the same compound, the GI50 (HCT-15) was 2.07 µM, the GI50 (KM12) was 2.62 µM (inactive) and the GI50 (NCI-H522) was 2.29 µM (inactive). The GI50 (SF-295) was 4.47 µM (inactive), the GI50 (SF-539) was 4.13 µM (inactive) and the GI50 (SK-MEL-5) was 1.9 µM (inactive). For the same compound, the GI50 (SK-OV-3) was 3.65 µM (inactive), the GI50 (SNB-19) was 3.79 µM (inactive) and the GI50 (SW-620) was 3.65 µM (inactive). For the same compound, the GI50 (U-251) was 3.48 µM (inactive), the GI50 (UACC-257) was 2.07 µM (inactive) and the GI50 (UO-31) was 2.69 µM (inactive).
With `COc1ccc2c(c1)O[C@@H]1c3ccc(OC)cc3OC[C@H]21` the GI50 (786-0) was 25.4 µM (inactive), the GI50 (A549) was 29.2 µM (inactive) and the GI50 (CAKI-1) was 29.6 µM (inactive). The GI50 (DMS-114) was 27.5 µM (inactive), the GI50 (HCT-15) was 25.8 µM and the GI50 (KM12) was 28.4 µM (inactive). For the same compound, the GI50 (NCI-H522) was 15.3 µM (inactive), the GI50 (SF-295) was 26.9 µM (inactive) and the GI50 (SF-539) was 38.1 µM (inactive). The GI50 (SK-MEL-5) was 17.4 µM (inactive), the GI50 (SK-OV-3) was 57 µM (inactive) and the GI50 (SNB-19) was 54.3 µM (inactive). The GI50 (SW-620) was 20.8 µM (inactive), the GI50 (U-251) was 24.2 µM (inactive) and the GI50 (UACC-257) was > 10 µM (inactive). The GI50 (UO-31) was 30.1 µM (inactive).
In the case of `COc1ccc(-c2coc3cc(O)ccc3c2=O)cc1` [FORMONONETIN], the GI50 (786-0) is reported as > 100 µM (inactive), the GI50 (A498) is reported as > 100 µM (inactive) and the GI50 (A549) is reported as > 100 µM (inactive). The GI50 (CAKI-1) was > 100 µM (inactive), the GI50 (HCT-15) was > 100 µM and the GI50 (Hs-578T) was > 100 µM (inactive). The GI50 (KM12) was > 100 µM (inactive), the GI50 (MDA-MB-231) was 11.3 µM (inactive) and the GI50 (NCI-H522) was > 100 µM (inactive). The GI50 (SF-295) was > 100 µM (inactive), the GI50 (SF-539) was > 100 µM (inactive) and the GI50 (SK-MEL-5) was > 100 µM (inactive). For the same compound, the GI50 (SK-OV-3) was > 100 µM (inactive), the GI50 (SNB-19) was > 100 µM (inactive) and the GI50 (SW-620) was > 100 µM (inactive). The GI50 (T47D) was > 100 µM (inactive), the GI50 (U-251) was > 100 µM (inactive) and the GI50 (UACC-257) was > 100 µM (inactive). The GI50 (UO-31) was 90.6 µM (inactive).
